Laboratory results: patent EP1478365B1 (Nowak, Götz, priority 2002, dated 2003)

Tested on: Dottersackgefäßsystem von Hühnerembryonen
Assay: animal or person
Settings: for Hemmung: time point not stated
Source text: Cyproheptadin (Peritol®) wird aufgrund seiner zentralen Wirkung als Appetitsstimulanz in der Klinik verwendet. Als Nebenwirkungen waren bisher im wesentlichen sedierende Effekte bekannt. […] Zur Wirkungsanalyse wurde die Gefäßentwicklung der Dottersackmembran von befruchteten Hühnereiern benutzt. Das Modell hat den Vorteil, daß die Entwicklung dieses primären Gefäßsystems der Hühnerembryonen Kapillaren erzeugt, die eine große Ähnlichkeit mit Tumorgefäßen haben. Diese Kapillaren sind stärker fenestriert und sind anatomisch den Tumorvaskularitäten ähnlich.
Bei 30 ex ovo bebrüteten Hühnereiern werden jeweils auf zwei Bereiche des Dottersackgefäßsystems 1,5 µl eines 3%igen Traganth-Gels, in dem Cyproheptadin in der zu untersuchenden Konzentration eingebracht wurde, appliziert. Bei weiterer Bebrütung in einem Sterilinkubator bei 37°C und 85% Luftfeuchtigkeit entwickeln sich die pre- bzw. postkapillären Gefäßstrukturen der Dottersackvaskularitäten, die 9 h und 24 h post applicationem semiquantitativ bewertet werden.
Ebenfalls nach 9 h und 24 h werden die Applikationsstellen bewertet.

## CN1CCC(=C2c3ccccc3C=Cc3ccccc32)CC1 [Cyproheptadin]
24 h values compared with 9 h values
  Wirkung 24 h nach Applikation: in leicht abgeschwächter Form noch vorhanden
Gallus gallus, read-out: maximale Wirkungsstärke
  Emax: 76%
Effective concentration range in words
  Hemmung der Dottersackangiogenese, wirksame Konzentrationen: in nanomolaren Konzentrationen
Single substance at its IC 25 concentration
  Hemmung: 20,3%
Single substance at its IC 50 concentration
  Hemmung: 37,9%
Single substance at its IC 75 concentration
  Hemmung: 65,8%
Single substance at its IC 100 concentration
  Hemmung: 76,6%
Very high concentrations
  Angiogenese bei sehr hohen Konzentrationen: totale Verhinderung einer Angiogenese
